Source: US20200354327A1, “COMPOUND HAVING STAT3 INHIBITORY ACTIVITY AND USE THEREOF” (CYTUS H&B CO., LTD., priority 2017, published 2020)

Each compound was assayed against STAT3 (Homo sapiens, UniProt P40763) (assay: Western blot of the 46 Table 1 compounds in Hodgkin lymphoma cell lines L540 and HDLM-2). Settings: L540 and HDLM-2.
Sequence of STAT3 (P40763 whole entry): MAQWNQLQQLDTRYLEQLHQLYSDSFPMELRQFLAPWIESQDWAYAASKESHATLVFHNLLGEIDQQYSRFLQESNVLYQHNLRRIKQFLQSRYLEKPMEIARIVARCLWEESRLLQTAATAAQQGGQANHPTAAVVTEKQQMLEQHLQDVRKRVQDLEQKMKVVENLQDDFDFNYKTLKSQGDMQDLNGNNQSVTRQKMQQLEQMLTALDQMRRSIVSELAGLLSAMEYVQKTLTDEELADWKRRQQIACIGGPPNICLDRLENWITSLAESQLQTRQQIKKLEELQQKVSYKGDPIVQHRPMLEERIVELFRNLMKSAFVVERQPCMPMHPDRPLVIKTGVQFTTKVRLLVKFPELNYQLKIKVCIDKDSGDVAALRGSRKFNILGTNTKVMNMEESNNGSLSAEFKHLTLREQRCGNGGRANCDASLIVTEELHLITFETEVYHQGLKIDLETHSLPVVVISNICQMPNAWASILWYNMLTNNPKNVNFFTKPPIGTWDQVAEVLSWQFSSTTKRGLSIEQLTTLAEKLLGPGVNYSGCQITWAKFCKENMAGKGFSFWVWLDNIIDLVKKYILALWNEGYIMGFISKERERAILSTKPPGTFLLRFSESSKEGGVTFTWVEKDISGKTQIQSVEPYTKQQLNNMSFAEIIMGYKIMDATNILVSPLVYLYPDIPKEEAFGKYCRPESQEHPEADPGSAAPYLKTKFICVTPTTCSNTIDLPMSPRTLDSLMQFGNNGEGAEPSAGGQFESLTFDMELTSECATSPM
Assay type: cell-based
Parameters: endogenous in cells; host or cells: L540, HDLM-2, U87-MG, MDA-MB-231, further human glioblastoma and breast cancer lines
Experimental: The human cancer cell lines used in the experiment were U87-MG (human malignant glioblastoma) and MDA-MB-231 (human malignant breast cancer) cell lines, and various kinds of human-derived blood and solid cancer cells including these human cancer cell lines were cultured as previously described (Jung J E, et al. FASEB J. 19, 1296-1298 (2005)). The human Hodgkin lymphoma cancer cell lines L540 and HLDM-2 used in the experiment were obtained from the German Collection of Microorganism and Cell Cultures (DSMZ, Germany) and cultured using RPMI 1640 medium containing 20% FBS in a 5% CO2 incubator at a temperature of 37° C.
Western blot analysis was performed (Jung J E, et al. FASEB J. 19, 1296-1298 (2005)). The cells were washed two times with PBS and suspended in the lysate (50 mM Tris-HCl, pH 7.4, 350 mM NaCl, 1% Triton X-100, 0.5% Nonidet P-40, 10% glycerol, 0.1% SDS, 1 mM EDTA, 1 mM EGTA, 1 mM Na3VO4, 1 mM PMSF, protease and phosphorylation inhibitor) and the cell membrane and nuclear membrane were crushed to lyse the cells. The insoluble protein fraction was removed by centrifugation, and the supernatant was mixed with SDS electrophoresis buffer and electrophoresis (SDS-PAGE) was performed to detect the protein with the desired antibody and to confirm the protein expression level.
With CC(CNCc1nc2ccccc2[nH]1)c1ccccc1 (centres unmarked) [compound 18, (1H-benzimidazol-2-ylmethyl)(2-phenylpropyl)amine] the “STAT3 inhibitory efficacy, first screening” value (“STAT3 inhibitory efficacy” below) was “judged to exert superior STAT3 inhibitory efficacy”. CC(C)(C)NC(=O)c1cccc(NC(=O)Nc2ccccc2)c1 [compound 30, 3-[(anilinocarbonyl)amino]-N-(tert-butyl)benzamide] was tested, and the “STAT3 inhibitory efficacy” value was “judged to exert superior STAT3 inhibitory efficacy”. For Cc1[nH]c2ccc(-c3n[nH]c(=S)n3C)cc2c1C [compound 42, 5-(2,3-dimethyl-lH-indol-5-yl)-4-methyl-2,4-dihydro-3H-l,2,4-triazole-3-thione], the “STAT3 inhibitory efficacy” value was “judged to exert superior STAT3 inhibitory efficacy”. For CS(=O)(=O)Nc1cccc(C(=O)Nc2ccccc2C(=O)NCc2cccnc2)c1 [compound 44, 2-({3-[(methylsulfonyl)amino]benzoyl]amino)-N-(3-pyridinylmethyl)benzamide], the “STAT3 inhibitory efficacy” value was “judged to exert superior STAT3 inhibitory efficacy”. O=C1NCSC1=Cc1ccccc1O [compound 5, 5-(2-hydroxybenzylidene)-l,3-thiazolidin-4-one] was tested, and the “STAT3 inhibitory efficacy” value was “judged to exert superior STAT3 inhibitory efficacy”. In the case of O=C(Nc1ccc(C(=O)N2CCNC2=O)cc1)c1cccs1 [compound 21, N-{4-[(2-oxo-l-imidazolidinyl)carbonyl]phenyl}-2-thiophenecarboxamide], the “STAT3 inhibitory efficacy” value is reported as “judged to exert superior STAT3 inhibitory efficacy”. In the case of O=S(=O)(NCc1nc2ccccc2[nH]1)c1ccccc1 [compound 6, N-(1H-benzimidazol-2-ylmethyl)benzenesulfonamide], the “STAT3 inhibitory efficacy” value is reported as “judged to exert superior STAT3 inhibitory efficacy”. With O=C(O)c1cccc(NS(=O)(=O)c2cccc(C(F)(F)F)c2)c1 [compound 11, 3-({[3-(trifluoromethyl)phenyl]sulfonyl}amino)benzoic acid] the “STAT3 inhibitory efficacy” value was “judged to exert superior STAT3 inhibitory efficacy”. With O=C(O)C1Cc2c([nH]c3ccccc23)C(c2ccc(O)cc2)N1 (stereo not drawn) [compound 8, l-(4-hydroxyphenyl)-2,3,4,9-tetrahydro-lH-beta-carboline-3-carboxylic acid] the “STAT3 inhibitory efficacy” value was “judged to exert superior STAT3 inhibitory efficacy”. For CCS(=O)(=O)Nc1cccc(C2=NN(S(C)(=O)=O)C(c3cccc(F)c3)C2)c1 (stereo not drawn) [compound 19, N-{3-[5-(3-fluorophenyl)-l-(methylsulfonyl)-4,5-dihydro-lH-pyrazol-3-yl]phenyl}ethanesulfonamide], the “STAT3 inhibitory efficacy” value was “judged to exert superior STAT3 inhibitory efficacy”. With O=C(Nc1ccc(F)cc1)Nc1cccc(C(=O)NCc2ccccc2)c1 [compound 29, N-benzyl-3-({[(4-fluorophenyl)amino]carbonyl}amino)benzamide] the “STAT3 inhibitory efficacy” value was “judged to exert superior STAT3 inhibitory efficacy”. In the case of O=C(Nc1ccc(Cc2ccc(NC(=O)C(c3ccccc3)c3ccccc3)c(O)c2)cc1O)C(c1ccccc1)c1ccccc1 [compound 38, N,N′-[methylenebis(2-hydroxy-4,1-phenylene)]bis(2,2-diphenylacetamide)], the “STAT3 inhibitory efficacy” value is reported as “judged to exert superior STAT3 inhibitory efficacy”. With Brc1cc2c(cc1CSc1nc3cccnc3[nH]1)OCO2 [compound 34, 2-{[(6-bromo-l,3-benzodioxol-5-yl)methyl]thio}-3H-imidazo[4,5-b]pyridine] the “STAT3 inhibitory efficacy” value was “judged to exert superior STAT3 inhibitory efficacy”. With Cc1ccc(S(=O)(=O)NCc2nc3ccccc3[nH]2)cc1 [compound 32, N-(1H-benzimidazol-2-ylmethyl)-4-methylbenzenesulfonamide] the “STAT3 inhibitory efficacy” value was “judged to exert superior STAT3 inhibitory efficacy”.
